Reference: PubChem BioAssay AID2060613 (Molecular Pharmacology Branch, DTP, NCI, 2025)

Tested on: 233499-124-R-J3-PDC complex spheroid viability
Assay: Anticancer human tumor 233499-124-R-J3-PDC patient-derived colon adenocarcinoma cell line growth inhibition [CLK]
Conditions: for IC50: curve of first compound; for viability, T/C: stronger effect = lower value; active = viability on the fitted dose curve at most 10% of control; inactive = the rest
Method in brief: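 Patient-derived tumor cells grown as complex spheroids with HUVEC endothelial cells and mesenchymal stem cells, treated with drug combinations. Concentrations descend in half-log steps from near clinical Cmax, or from 10 microM if Cmax unknown.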
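Note: spheroids exposed to the drug combinations for seven days.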
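Throughout, for viability, T/C: percent viability relative to DMSO vehicle control wells taken as 100%.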

CC(C)CC(NC(=O)C(Cc1ccccc1)NC(=O)c1cnccn1)B(O)O (centres undefined) + CN1CCN(c2cc(C(=O)Nc3cc4cc(-c5cnn(C)c5)ccc4cn3)ccn2)CC1
inactive: viability, T/C (second compound 0.0316 µM, first compound 0.000949 µM) 97.8% | viability, T/C (second compound 0.0316 µM, first compound 0.003 µM) 113% | viability, T/C (second compound 0.1 µM, first compound 0.000949 µM) 86.1% | viability, T/C (second compound 0.1 µM, first compound 0.003 µM) 93.5% | viability, T/C (second compound 0.316 µM, first compound 0.000949 µM) 96.5% | viability, T/C (second compound 0.316 µM, first compound 0.003 µM) 99%
5.27 nM: IC50 (second compound 0.316 µM)
active: viability, T/C (second compound 0.0316 µM, first compound 0.00949 µM) 0.79% | viability, T/C (second compound 0.0316 µM, first compound 0.03 µM) 0.19% | viability, T/C (second compound 0.0316 µM, first compound 0.0949 µM) 0.17% | viability, T/C (second compound 0.0316 µM, first compound 0.3 µM) 0.17% | viability, T/C (second compound 0.1 µM, first compound 0.00949 µM) 0.23% | viability, T/C (second compound 0.1 µM, first compound 0.03 µM) 0.2% | viability, T/C (second compound 0.1 µM, first compound 0.0949 µM) 0.18% | viability, T/C (second compound 0.1 µM, first compound 0.3 µM) 0.17% | viability, T/C (second compound 0.316 µM, first compound 0.00949 µM) 0.2% | viability, T/C (second compound 0.316 µM, first compound 0.03 µM) 0.17% | viability, T/C (second compound 0.316 µM, first compound 0.0949 µM) 0.18% | viability, T/C (second compound 0.316 µM, first compound 0.3 µM) 0.17% | viability, T/C (second compound 1 µM, first compound 0.000949 µM) 1.6% | viability, T/C (second compound 1 µM, first compound 0.003 µM) 0.82% | viability, T/C (second compound 1 µM, first compound 0.00949 µM) 0.17% | viability, T/C (second compound 1 µM, first compound 0.03 µM) 0.15% | viability, T/C (second compound 1 µM, first compound 0.0949 µM) 0.54% | viability, T/C (second compound 1 µM, first compound 0.3 µM) 0.13% | viability, T/C (second compound 3.16 µM, first compound 0.000949 µM) 0.76% | viability, T/C (second compound 3.16 µM, first compound 0.003 µM) 0.84% | viability, T/C (second compound 3.16 µM, first compound 0.00949 µM) 0.17% | viability, T/C (second compound 3.16 µM, first compound 0.03 µM) 0.18% | viability, T/C (second compound 3.16 µM, first compound 0.0949 µM) 0.19% | viability, T/C (second compound 3.16 µM, first compound 0.3 µM) 0.33% | viability, T/C (second compound 10 µM, first compound 0.000949 µM) 0.45% | viability, T/C (second compound 10 µM, first compound 0.003 µM) 0.34% | viability, T/C (second compound 10 µM, first compound 0.00949 µM) 0.24% | viability, T/C (second compound 10 µM, first compound 0.03 µM) 0.24% | viability, T/C (second compound 10 µM, first compound 0.0949 µM) 0.22% | viability, T/C (second compound 10 µM, first compound 0.3 µM) 0.19%
5.53 nM: IC50 (second compound 0.0316 µM)
5.01 nM: IC50 (second compound 0.1 µM)
< 0.949 nM: IC50 (second compound 1 µM) | IC50 (second compound 3.16 µM) | IC50 (second compound 10 µM)

CCN1CCN(Cc2ccc(Nc3ncc(F)c(-c4cc(F)c5nc(C)n(C(C)C)c5c4)n3)nc2)CC1 + CNC(=O)c1ccc(Nc2nc(OC3CCCC3)c3c(-c4ccc5nc(C)oc5c4)c[nH]c3n2)c(OC)c1
inactive: viability, T/C (second compound 0.0316 µM, first compound 0.00316 µM) 88.3% | viability, T/C (second compound 0.0316 µM, first compound 0.01 µM) 98.3% | viability, T/C (second compound 0.0316 µM, first compound 0.0316 µM) 90% | viability, T/C (second compound 0.0316 µM, first compound 0.1 µM) 106% | viability, T/C (second compound 0.0316 µM, first compound 0.316 µM) 102% | viability, T/C (second compound 0.0316 µM, first compound 1 µM) 70.1% | viability, T/C (second compound 0.1 µM, first compound 0.00316 µM) 71.7% | viability, T/C (second compound 0.1 µM, first compound 0.01 µM) 91.6% | viability, T/C (second compound 0.1 µM, first compound 0.0316 µM) 84.8% | viability, T/C (second compound 0.1 µM, first compound 0.1 µM) 83.8% | viability, T/C (second compound 0.1 µM, first compound 0.316 µM) 89.3% | viability, T/C (second compound 0.1 µM, first compound 1 µM) 64% | viability, T/C (second compound 0.316 µM, first compound 0.00316 µM) 68.8% | viability, T/C (second compound 0.316 µM, first compound 0.01 µM) 84.3% | viability, T/C (second compound 0.316 µM, first compound 0.0316 µM) 78% | viability, T/C (second compound 0.316 µM, first compound 0.1 µM) 94.2% | viability, T/C (second compound 0.316 µM, first compound 0.316 µM) 62.7% | viability, T/C (second compound 0.316 µM, first compound 1 µM) 53.1% | viability, T/C (second compound 1 µM, first compound 0.00316 µM) 77.2% | viability, T/C (second compound 1 µM, first compound 0.01 µM) 85.9% | viability, T/C (second compound 1 µM, first compound 0.0316 µM) 74.3% | viability, T/C (second compound 1 µM, first compound 0.1 µM) 85.3% | viability, T/C (second compound 1 µM, first compound 0.316 µM) 84.5% | viability, T/C (second compound 1 µM, first compound 1 µM) 49.2% | viability, T/C (second compound 3.16 µM, first compound 0.00316 µM) 81.1% | viability, T/C (second compound 3.16 µM, first compound 0.01 µM) 75.2% | viability, T/C (second compound 3.16 µM, first compound 0.0316 µM) 78.1% | viability, T/C (second compound 3.16 µM, first compound 0.1 µM) 78.7% | viability, T/C (second compound 3.16 µM, first compound 0.316 µM) 97.2% | viability, T/C (second compound 3.16 µM, first compound 1 µM) 57.6% | viability, T/C (second compound 10 µM, first compound 0.00316 µM) 76.4% | viability, T/C (second compound 10 µM, first compound 0.01 µM) 80.9% | viability, T/C (second compound 10 µM, first compound 0.0316 µM) 66.8% | viability, T/C (second compound 10 µM, first compound 0.1 µM) 74.5% | viability, T/C (second compound 10 µM, first compound 0.316 µM) 60.1% | viability, T/C (second compound 10 µM, first compound 1 µM) 51.1%
> 1000 nM: IC50 (second compound 0.0316 µM) | IC50 (second compound 0.1 µM) | IC50 (second compound 0.316 µM) | IC50 (second compound 3.16 µM) | IC50 (second compound 10 µM)
971 nM: IC50 (second compound 1 µM)
